Numbered stars: 1 amine (or outer) side, 2 acyl side, 3 side chain; on linkers, the order of the positions; unused ones are H or OH. Square brackets hold non-standard residues; d marks the D form. Peptide text beside a SMILES is read from it. Phe(4-NO2) = N[C@@H](Cc1ccc([N+](=O)[O-])cc1)C(=O)O; X1 = O=C([C@@H](N[*:1])C(O)c1ccccc1)[*:2]; hCha = N[C@@H](CCC1CCCCC1)C(=O)O; Cha = N[C@@H](CC1CCCCC1)C(=O)O
What follows are molecules tested against T1, C5a Receptor (Homo sapiens, UniProt P21730) (assay: Anaphylatoxin receptor binding Ki determination: inhibition of 125I-C5a binding to PMNL membrane fragments). Conditions: 0.03-1 nM 125I-C5a, 2.5-25 μg/mL purified PMNL membrane fragments, filtration; read-out: In vitro C5a Receptor Binding Potency Ki.
T1 construct: 2.5-25 μg/mL of purified PMNL membrane fragments; from tissue; host or cells: polymorphonuclear leukocyte (PMNL) membrane fragments
T1 sequence (P21730 1-350): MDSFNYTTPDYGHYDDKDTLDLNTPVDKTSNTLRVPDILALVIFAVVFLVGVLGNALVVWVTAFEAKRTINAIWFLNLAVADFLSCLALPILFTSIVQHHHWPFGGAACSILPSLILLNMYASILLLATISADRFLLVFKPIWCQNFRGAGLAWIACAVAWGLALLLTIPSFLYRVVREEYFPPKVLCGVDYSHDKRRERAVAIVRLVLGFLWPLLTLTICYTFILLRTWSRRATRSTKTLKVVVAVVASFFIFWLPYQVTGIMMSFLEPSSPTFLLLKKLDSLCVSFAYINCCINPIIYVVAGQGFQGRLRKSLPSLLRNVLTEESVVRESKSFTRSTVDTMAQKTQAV
Procedure: Specific inhibition of C5a binding activity of representative compounds of the present invention was measured using 0.03-1 nM ^125 I-C5a with 2.5-25 μg/mL of purified PMNL membrane fragments (Borregaard, N.; Heiple, J. M.; Simons, E. R.; and Clark, R. A. J. Cell. Biol. 1983, 97, 52-61.). Free and membrane-bound ligand were separated by filtration.

Compound	Ki [nM]
CC(C)C[C@H](NC(=O)[C@H](CC1CCCCC1)NC(=O)[C@H](CC1CCCCC1)NC(=O)[C@H](C)NC(=O)[C@H](CCCCN)NC(=O)[C@@H](N)Cc1ccccc1)C(=O)N[C@H](C)C(=O)N[C@@H](CCCNC(=N)N)C(=O)O [Example 2, H-Phenylalanyl-Lysyl-Alanyl-{(2S)-2-Amino-3-cyclohexylpropanoyl}-{(2S)-2-Amino-3-cyclohexylpropanoyl}-Leucyl-DAlanyl-Arginyl-OH] (H-FKA[Cha][Cha]L[dA]R-OH)	98
CC(=O)N[C@@H](Cc1c[nH]cn1)C(=O)N[C@@H](CCCCN)C(=O)N[C@@H](CC(=O)O)C(=O)N[C@@H](CC1CCCCC1)C(=O)N[C@@H](Cc1c[nH]cn1)C(=O)N[C@@H](CC(C)C)C(=O)N[C@H](C)C(=O)N[C@@H](CCCNC(=N)N)C(=O)O [Example 23, Ac-Histidyl-Lysyl-Aspartyl-{(2S)-2-Amino-3-cyclohexylpropanoyl}-Histidyl-Leucyl-DAlanyl-Arginyl-OH] (Ac-HKD[Cha]HL[dA]R-OH)	2400
CC(=O)N[C@@H](Cc1ccc([N+](=O)[O-])cc1)C(=O)N[C@@H](CCCCN)C(=O)N[C@@H](CC(=O)O)C(=O)N[C@@H](CC1CCCCC1)C(=O)N[C@@H](CC1CCCCC1)C(=O)N[C@@H](CC(C)C)C(=O)N[C@H](C)C(=O)N[C@@H](CCCNC(=N)N)C(=O)O [Example 31, Ac-(4-NO2)Phenylalanyl-Lysyl-Aspartyl-{(2S)-2-Amino-3-cyclohexylpropanoyl}-{(2S)-2-Amino-3-cyclohexylpropanoyl}-Leucyl-DAlanyl-Arginyl-OH] (Ac-[Phe(4-NO2)]KD[Cha][Cha]L[dA]R-OH)	90
CC(C)C[C@H](NC(=O)[C@H](Cc1ccccc1)NC(=O)[C@H](Cc1ccccc1)NC(=O)[C@H](CC(N)=O)NC(=O)[C@H](CCCCN)NC(=O)[C@@H](N)Cc1ccccc1)C(=O)N[C@H](C)C(=O)N[C@@H](CCCNC(=N)N)C(=O)O [Example 91, H-Phenylalanyl-Lysyl-Asparaginyl-Phenylalanyl-Phenylalanyl-Leucyl-DAlanyl-Arginyl-OH] (H-FKNFFL[dA]R-OH)	485
CC(C)C[C@H](NC(=O)[C@H](C)NC(=O)[C@H](CCC1CCCCC1)NC(=O)[C@H](C)NC(=O)[C@H](CCCCN)NC(=O)[C@@H](N)Cc1ccccc1)C(=O)N[C@H](C)C(=O)N[C@@H](CCCNC(=N)N)C(=O)O [Example 106, H-Phenylalanyl-Lysyl-Alanyl-{(2S)-2-Amino-4-cyclohexylbutanoyl}-Alanyl-Leucyl-DAlanyl-Arginyl-OH] (H-FKA[hCha]AL[dA]R-OH)	42
CC[C@H](C)[C@H](N)C(=O)N[C@@H](CO)C(=O)N[C@@H](Cc1ccccc1)C(=O)N[C@@H](CCCCN)C(=O)N[C@@H](CC(=O)O)C(=O)N[C@@H](CC1CCCCC1)C(=O)N[C@@H](CC1CCCCC1)C(=O)N[C@@H](CC(C)C)C(=O)N[C@H](C)C(=O)N[C@@H](CCCNC(=N)N)C(=O)O [Example 111, H-Isoleucyl-Seryl-Phenylalanyl-Lysyl-Aspartyl-{(2S)-2-Amino-3-cyclohexylpropanoyl}-{(2S)-2-Amino-3-cyclohexylpropanoyl}-Leucyl-DAlanyl-Arginyl-OH] (H-ISFKD[Cha][Cha]L[dA]R-OH)	650
CC(C)C[C@H](NC(=O)[C@H](C)NC(=O)[C@@H](NC(=O)[C@H](C)NC(=O)[C@H](CCCCN)NC(=O)[C@@H](N)Cc1ccccc1)C(O)c1ccccc1)C(=O)N[C@H](C)C(=O)N[C@@H](CCCNC(=N)N)C(=O)O (some centres unmarked) [Example 117, H-Phenylalanyl-Lysyl-Alanyl-Phenylseryl-Alanyl-Leucyl-DAlanyl-Arginyl-OH] (H-FKA[X1]AL[dA]R-OH)	550
C[C@H](NC(=O)[C@H](CCCCN)NC(=O)[C@@H](N)Cc1ccccc1)C(=O)N[C@@H](CC1CCCCC1)C(=O)N[C@@H](CC1CCCCC1)C(=O)N[C@H](C(=O)N[C@H](C)C(=O)N[C@@H](CCCNC(=N)N)C(=O)O)[C@@H](C)O [Example 131, H-Phenylalanyl-Lysyl-Alanyl-{(2S)-2-Amino-3-cyclohexylpropanoyl}-{(2S)-2-Amino-3-cyclohexylpropanoyl}-Threonyl-DAlanyl-Arginyl-OH] (H-FKA[Cha][Cha]T[dA]R-OH)	170

Source: US5223485A, “Anaphylatoxin-receptor ligands” (Abbott Laboratories, priority 1991, dated 1993)
